Activity calls are given as the source filed them. How the calls were made is not given here.
Target: Small ubiquitin-related modifier 1 (Homo sapiens) (UniProt P63165)
Assay: SUMO1 protein-protein binding blockers, potency – biochemical, FRET, dose response (AID 624383)
Settings: SUMO1 protein-protein interaction, in vitro

Small ubiquitin-related modifier 1 (Homo sapiens), sequence (P63165 whole entry, looked up): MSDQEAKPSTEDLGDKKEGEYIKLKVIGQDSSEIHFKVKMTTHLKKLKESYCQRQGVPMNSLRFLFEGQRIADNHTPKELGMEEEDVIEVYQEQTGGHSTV

SMILES	IC50
C[c-]1[c-](C)[c-](C)[c-](C)[c-]1C.[Fe].c1cc2nccc(N3CCCC3)[c-]2c1 (stereo not drawn)	inactive
C=Cc1c(C)c2cc3[nH]c(cc4nc(cc5nc(cc1[nH]2)C(C)=C5CCC(=O)O)C(CCC(=O)O)=C4C)c(C)c3C=C	1810 nM
CCN(CC)P(=O)(NC(=O)C(Cl)(Cl)Cl)N(CC)CC.[Cl-].[Cl-].[Cl-].[Nd+3]	601 nM

— PubChem BioAssay AID624383 (Sanford-Burnham Center for Chemical Genomics, 2012)
